# Data from BindingDB's records for doi:10.1021/jm990309x (University of New Mexico, 1999).
# Target: Bile salt-activated lipase (Sus scrofa)
# Experiment: Inhibition of the Pancreatic Cholesterol Esterase from porcine
row,Ki [nM],Structure (SMILES)
1,25,O=c1oc(Cl)ccc1CCC1CCCCC1 [6-Chloro-3-(2-cyclohexyl-ethyl)-pyran-2-one]
2,60,O=c1oc(Cl)ccc1CCCC1CCCCC1 [6-Chloro-3-(3-cyclohexyl-propyl)-pyran-2-one]
3,2200,O=c1oc(Cl)ccc1CC1CCCCC1 [6-Chloro-3-cyclohexylmethyl-pyran-2-one]
